Results on 5 molecules are retold here after patent publication US9987329B2, “Methods for treating peripheral nerve damage” (Cornell University, priority 2014, dated 2018).

The subject of experiment [1] is trigeminal ganglion (TG) neuronal cells. The experiment can be described thus: Inhibition of VEGF-B induced neurite growth in TG neurons. The class given is cell-based, mouse. The conditions noted are these: 3 days. Here is the method:
(§1) Trigeminal ganglion (TG) neuronal cells were obtained and cultured as described previously. Pan, Z., Fukuoka et al., FASEB J. 27, 2756-2767 (2013). To evaluate the effect of VEGF-B on neuronal growth, TG neuronal cells were treated with 10-100 ng/ml recombinant mouse VEGF-B^186 (R&D 767-VE-010). The VEGF-B treatments were replenished every other day. Neurite formation and growth was followed up to 3 days. […] VEGF receptors were inhibited by using neutralizing antibodies against VEGFR1 (R&D AF471), VEGFR2 (R&D MAB4431) and Neuropilin 1 (NRP1) (R&D MAB566). TG cells were incubated in a dose dependent manner with anti-VEGFR1, anti-VEGFR2 or anti-NRP1 for 1 hour prior to the addition of 50 ng/ml VEGF-B. The tyrosine kinase domains of VEGFR2 were inhibited with specific inhibitors by incubating TG neuronal cells with 10 μM SU 1498 (Sigma T4192) or 5 nM Ki 8751 (Sigma K1265) for 1 hr before adding 50 ng/ml VEGF-B. All neurite growth was imaged with an AxioObserver Z1 fluorescence microscope in the YFP channel attached to an AxioCam HRm digital camera (Zeiss) operated by AxioVision 4.0 software. Images were analyzed using Neurolucida 9 (MBF Bioscience) a quantitative nerve tracing software.

For experiment [2], the system named is Human corneal limbal epithelial (HCLE) cells. The experiment can be described thus: In vitro scratch wound assay. The note with it: 10 ng/ml. The class given is cell-based. Here is the method:
Human corneal limbal epithelial (HCLE) cells were cultured in 6-well plates until confluency as described. Pan, Z., Fukuoka et al., FASEB J. 27, 2756-2767 (2013). Cells were starved in KSFM medium (gibco 10724-011) without supplements for 24 h. Then a straight-line scratch mark was made in each well with a 200 ul pipette tip. KSFM medium supplemented with VEGF-B^186 (50 ng/ml) or EGF (10 ng/ml, Millipore 01-101) was added to the wells. Scratch areas were imaged at 0, 8, 24 and 48 hours at the same locations using the mark and find module of the Axiovision software and the wound closure analyzed by Photoshop.

Experiment [3] deals with corneal nerves of Thy-1-YFP mice. The experiment can be described thus: Corneal nerve regeneration with combinations of VEGF-A and VEGF-B. The class given is in vivo, mouse. The conditions noted are these: ligand administered separately, two weeks post-injury (FIG. 14). Here is the method:
Thy-1-YFP mice were subjected to cornea epithelium debridement to ablate the superficial nerve endings that innervate the cornea Immediately after injury, the mice were treated with different combinations of VEGF-A and VEGF-B. As shown, combinations of VEGF ligands induce greater nerve regeneration in vivo.
The observed effects were also recapitulated in vivo. Thy-1-YFP neurofluorescent mice were used to induce a corneal epithelium injury that results in ablation of the superficial nerve endings of the cornea. The mice were then treated with different combinations of VEGF-A and VEGF-B, and nerve regeneration was analyzed after two weeks post-injury.

Experiment [4] deals with trigeminal ganglion (TG) neuronal cells. The experiment can be described thus: Trigeminal ganglion neuronal growth assay. In kind it is cell-based, mouse. The conditions noted are these: 50 ng/ml, three days in culture (FIG. 2A). Here is the method: as §1

Regarding `COc1cc2nccc(Oc3ccc(NC(=O)Nc4ccc(F)cc4F)c(F)c3)c2cc1OC` [Ki 8751], the “inhibition of VEGF-B induced neurite growth” value (“inhibition” for short) in experiment [1] (5 nM, 1 hr before 50 ng/ml VEGF-B) is “does not block”.
As to “EGF: epidermal growth factor (Millipore 01-101), a known inducer of epithelial cell proliferation”, in experiment [2], the “time of complete confluence of the scratch area” value came out at 24 h and the “time to complete closure of the scratch area” value was below 24 h. Moreover, the “onset of cell growth into the scratch area” value in experiment [2] (post-treatment) was 8 h.
Take `CC(C)c1cc(/C=C(\C#N)C(=O)NCCCc2ccccc2)cc(C(C)C)c1O` [SU 1498]: the “inhibition” value in experiment [1] (10 μM, 1 hr before 50 ng/ml VEGF-B) was “does not block”.

B1: soluble VEGFR1: recombinant human-soluble VEGFR1 (sVEGFR1/sFlt1, CellSciences CRF103) (protein)
chain: SKLKDPELSLKGTQHIMQAGQTLHLQCRGEAAHKWSLPEMVSKESERLSITKSACGRNGKQFCSTLTLNTAQANHTGFYSCKYLAVPTSKKKETESAIYIFISDTGRPFVEMYSEIPEIIHMTEGRELVIPCRVTSPNITVTLKKFPLDTLIPDGKRIIWDSRKGFIISNATYKEIGLLTCEATVNGHLYKTNYLTHRQTNTIIDVQISTPRPVKLLRGHTLVLNCTATTPLNTRVQMTWSYPDEKNKRASVRRRIDQSNSHANIFYSVLTIDKMQNKDKGLYTCRVRSGPSFKSVNTSVHIYDKAFITVKHRKQQVLETVAGKRSYRLSMKVKAFPSPEVVWLKDGLPATEKSARYLTRGYSLIIKDVTEEDAGNYTILLSIKQSNVFKNLTATLIVNVKPQIYEKAVSSFPDPALYPLGSRQILTCTAYGIPQPTIKWFWHPCNHNHSEARCDFCSNNEESFILDADSNMGNRIESITQRMAIIEGKNKMASTLVVADSRISGIYICIASNKVGTVGRNISFYITDVPNGFHVNLEKMPTEGEDLKLSCTVNKFLYRDVTWILLRTVNNRTMHYSISKQKMAITKEHSITLNLTIMNVSLQDSGTYACRARNVYTGEEILQKKEITIRGEHCNKKAVFSRISKFKSTRNDCTTQSNVKH
On to B1, for which the “inhibition” value in experiment [1] (equal molar concentration (2.6 nM) with 50 ng/ml VEGF-B) is “inhibited”.

B2: VEGF-A: vascular endothelial growth factor A; 232 amino acid protein, NextProt NX_P15692, SEQ ID NO. 2 (protein, listed as Homo sapiens)
chain: MNFLLSWVHWSLALLLYLHVKFMDVYQRSYCHPIETLVDIFQEYPDEIEYIFKPSCVPLMRCGGCCNDEGLECVPTEESNITMQIMRIKPHQGQHIGEMSFLQHNKCECRPKKDRARQEKKSVRGKGKGQKRKRKKSRYKSWSVYVGARCCLMPWSLPGPHPCGPCSERRKHLFVQDPQTCKCSCKNTDSRCKARQLELNERTCRCDKPRRHAKWSQAAPMAEGGGQNHHEV
In the case of B2, the nerve regeneration entry in experiment [3] is “induced greater nerve regeneration”. In addition, the “pattern of neurite growth (elongation and branching)” value in experiment [4] is given as “mainly neurite elongation with few branching nodes”.
